Reference: patent US20140113904A1, “TREATMENT OF CANCER WITH TOR KINASE INHIBITORS” (SIGNAL PHARMACEUTICALS, LLC, priority 2012, published 2014)

Tests used:
GSK3β(S9) = assay: Phospho-GSK3β(S9) in PC3 cell lysates, Luminex multiplex; format: cell-based, human; conditions: PC3, 1 hour exposure; read-out: p-GSK3β (S9) IC50
Description: (§1) The direct substrate for TORC1 was 4E-BP 1(T46) and indirect downstream substrate was S6RP(S235/S236). The direct substrate for TORC2 was Akt(S473) and indirect downstream substrates measured were GSK3β(S9) and PRAS40(T246). Additionally, the phosphorylation status of Akt(T308), a phosphorylation site for PDK1 was monitored.
The multiplex Luminex assay format differs from conventional enzyme-linked immunosorbent assay (ELISA) in that the multiplex capture antibody is attached to a polystyrene bead whereas the ELISA capture antibody is attached to the microplate well. The use of the suspension bead-based technology enables the multiplexing capabilities of the Luminex assays. The xMAP® technology uses 5.6 micron polystyrene microspheres, which are internally dyed with red and infrared fluorophores of differing intensities. Each bead is given a unique number, or bead region, allowing differentiation of one bead from another. Beads covalently bound to different specific antibodies can be mixed in the same assay, utilizing a 96-well microplate format. At the completion of the sandwich immunoassay, beads can be read, using the Luminex 100™ or Luminex 200 detection system, in single-file by dual lasers for classification and quantification of each analyte. […]

S6RP(S235/S236) = assay: Phospho-S6RP(S235/S236) in PC3 cell lysates, MSD; format: cell-based, human; conditions: PC3, 1 hour exposure; read-out: p-S6RP(S235/S236) IC50
Description: as §1
MSD® biomarker detection assays provide a rapid and convenient method for measuring the total and phosphorylated levels of protein targets within a single small volume sample. These assays are available in both single-plex and multiplex formats. In a single-plex assay, an antibody for a specific protein target is coated on one electrode (or spot) per well. […] MSD Read Buffer that provides the appropriate chemical environment for ECL is added and the plate is read using an MSD SECTOR™ Imager. […] The instrument measures intensity of the emitted light to afford a quantitative measure of the amount of phosphorylated Akt or S6RP present in the sample. […]
The assay plate was incubated with 150 μL of MSD Blocker A Solution for 1 hour with shaking at room temperature. […] Then 150 μL of 1×MSD Read Buffer T was added to each well. The plate was read on the SECTOR Imager plate reader. The Excel data was transferred to Activity Base and IC50 values were calculated.
All data was analyzed using XLfit from IDBS. […]

Work on `CO[C@H]1CC[C@H](N2C(=O)CNc3ncc(-c4ccc(C(C)(C)O)nc4)nc32)CC1` [Compound 1, 7-(6-(2-hydroxypropan-2-yl)pyridin-3-yl)-1-((1r,4r)-4-methoxycyclohexyl)-3,4-dihydropyrazino-[2,3-b]pyrazin-2(1H)-one] yielded an IC50 (GSK3β(S9)) of 0.23 µM and an IC50 (S6RP(S235/S236)) of 0.02 µM.
